Measurements: patent US20240158472A1, “FERRITIN VARIANTS WITH INCREASED STABILITY AND COMPLEXATION ABILITY” (Cellis AG, priority 2021, published 2024)

Tested on: siRNA
Test: Association of ferritin with siRNA, gel
Assay type: binding
Description: 1 ml reaction containing 2 mg Ft and 4 ug siRNA in DPBS, pH lowered to values as indicated (2.5, 3.2, 4.4, 5.6 and 6.8, respectively). Samples were incubated 15 min in RT, then NaOH was added to adjust pH to neutral (pH 7). Non-associated free siRNA was removed by 4 centrifugation steps on Amicons with 100 kDa cut-off.

In the case of “Q11E mutant: Examples 3-8 ferritin variant based on Q11E with added K54E, K72E, K87Q, K144E, C91S, C103S and C131S”, the “association with siRNA” value (incubated in pH 2.4 and 3.2) is reported as “not” and the “association with siRNA” value (incubated in pH range 4.4 to 6.8, 2 mg Ft and 4 ug siRNA) is reported as “associated with siRNA”.
